Patent US9932637B2, “Genetic polymorphisms associated with cardiovascular disorders and drug response, methods of detection and uses thereof” (CELERA CORPORATION, priority 2003, dated 2018)
Values joined by “and” are separate entries in the source; they are usually repeats but may differ in a detail not shown here. Equal values may be shown once.

Tested on: patients with prior myocardial infarction (CARE study)
Experiment: CARE aligned analysis (prospective and case/control design, white males): association of genotypes with pravastatin efficacy (Tables 13, 15)
Assay type: in vivo, human
Procedure: The data presented in Table 8 based on an association of genotypes with pravastatin efficacy of the CARE samples were further analyzed and presented in Table 13. The further analysis was performed to align the data obtained from the analysis of the CARE samples, which was a prospective study, to the analysis of the WOSCOP samples, which was a case/control study. Table 13 also presents an analysis of the association of genotypes with pravastatin efficacy in the WOSCOPs samples. Relative to the analysis performed on the data presented in Table 8, there are two significant differences to determine if the SNP influenced pravastatin efficacy. Data obtained from the CARE samples were separated by study design into two groups, those in the prospective study design group and those in the case/control study design group. The original care study contained 16 protocol defined cardiovascular disease defined endpoints and 150 other phenotypes. […] The control groups used to compare the data were also divided into two groups, the “all possible” control group and the “cleaner” control group. […] Because the participants in the WOSCOPs trial were all white males, only data obtained from white males in the CARE study were analysed. Data from the “all possible” and “cleaner” controls were compared to data obtained from the cases in the prospective study design while only data from “cleaner” controls were compared to cases in the case/control study design. The data from the case/control cohorts were analysed using conditional logistic regression (as opposed to logistic regression used for the original anaylsis).
The anaylsis was refined as described for both Tables 13 and 14.

[1] = A2M hCV517658, CARE Case/Control, F&NF MI
[2] = ABCA1 hCV2741051, CARE Case/Control, F&NF MI
[3] = ABCA1 hCV2741051, CARE Prospective, F&NF MI
[4] = ABCA1 hCV2741083, CARE Prospective, F&NF MI
[5] = ADAM12 hCV25928135, CARE Case/Control, F&NF MI
[6] = AGTR1 hCV3187716, CARE, Case/Control, F MI/SD/NF MI
[7] = AGTR1 hCV3187716, CARE, Prospective, F MI/SD/NF MI
[8] = ALOX12 hCV1552894, CARE Prospective, F&NF MI
[9] = ALOX12 hCV1552900, CARE Prospective, F&NF MI
[10] = ASAH1 hCV2442143, CARE, Prospective, F MI/SD/NF MI
[11] = C14orf159 hCV25472345, CARE Case/Control, F&NF MI
[12] = C14orf159 hCV25472345, CARE Prospective, F&NF MI
[13] = CAPG hCV15851292, CARE, Case/Control, F MI/SD/NF MI
[14] = CAPN10 hCV25614016, CARE, Case/Control, F MI/SD/NF MI, listed as Pravastatin
[15] = CAPN10 hCV25614016, CARE, Prospective, F MI/SD/NF MI

`CC[C@H](C)C(=O)O[C@H]1C[C@H](O)C=C2C=C[C@H](C)[C@H](CC[C@@H](O)C[C@@H](O)CC(=O)O)[C@H]21` [pravastatin] was tested. Which “2 Rare Alleles (%), Pravastatin Patients” value [1] did it give?
Its value is “(7.6%)”.

And the “2 Rare Alleles n/total, Pravastatin Patients” value [1]?
Its value is 11/144 and 11/101.

What about the “Pravastatin vs placebo odds ratio, 0 rare alleles” value [1] of the same compound?
The value was 0.55 and 0.53.

And the “Pravastatin vs placebo odds ratio, 1 rare allele” value [1]?
The value was 1.04 and 0.93.

And the “Pravastatin vs placebo odds ratio, 2 rare alleles” value [1]?
Its value is 0.47 and 0.38.

What about the “2 Rare Alleles n/total, Pravastatin Patients” value [2] of the same compound?
The value was 12/93 and 12/64.

What about the “Pravastatin vs placebo odds ratio, 0 rare alleles” value [2] of the same compound?
Its value is 0.55 and 0.52.

And the “Pravastatin vs placebo odds ratio, 1 rare allele” value [2]?
Its value is 0.98 and 0.82.

And the “Pravastatin vs placebo odds ratio, 2 rare alleles” value [2]?
The value was 1.71 and 1.81.

And the “2 Rare Alleles n/total, Pravastatin Patients” value [3]?
Its value is 12/94 and 12/65.

And the “Pravastatin vs placebo odds ratio, 0 rare alleles” value [3]?
The value was 0.55 and 0.52.

What about the “Pravastatin vs placebo odds ratio, 1 rare allele” value [3] of the same compound?
Its value is 0.99 and 0.83.

And the “Pravastatin vs placebo odds ratio, 2 rare alleles” value [3]?
Its value is 1.80 and 1.81.

And the “2 Rare Alleles n/total, Pravastatin Patients” value (ABCA1 hCV2741083, CARE Case/Control, F&NF MI)?
Its value is 4/22 and 4/18.

What about the “2 Rare Alleles n/total, Pravastatin Patients” value [4] of the same compound?
Its value is 4/23 and 4/19.

What about the “Pravastatin vs placebo odds ratio, 0 rare alleles” value [4] of the same compound?
The value was 0.63.

And the “Pravastatin vs placebo odds ratio, 1 rare allele” value [4]?
Its value is 1.52.

And the “Pravastatin vs placebo odds ratio, 2 rare alleles” value [4]?
The value was 2.74.

What about the “Pravastatin vs. Placebo Odds Ratio” value (ABCA1 hCV2741083, Patients with 0 Rare Alleles, CARE Case/Control, F MI/SD/NF MI) of the same compound?
Its value is 0.60.

And the “Pravastatin vs. Placebo Odds Ratio” value (ABCA1 hCV2741083, Patients with 0 Rare Alleles, CARE Prospective, F MI/SD/NF MI)?
Its value is 0.59.

And the “Pravastatin vs. Placebo Odds Ratio” value (ABCA1 hCV2741083, Patients with 1 Rare Allele, CARE Case/Control, F MI/SD/NF MI)?
Its value is 1.53.

And the “Pravastatin vs. Placebo Odds Ratio” value (ABCA1 hCV2741083, Patients with 1 Rare Allele, CARE Prospective, F MI/SD/NF MI)?
The value was 1.61.

And the “Pravastatin vs. Placebo Odds Ratio” value (ABCA1 hCV2741083, Patients with 2 Rare Alleles, CARE Case/Control, F MI/SD/NF MI)?
Its value is 0.71.

What about the “Pravastatin vs. Placebo Odds Ratio” value (ABCA1 hCV2741083, Patients with 2 Rare Alleles, CARE Prospective, F MI/SD/NF MI) of the same compound?
Its value is 0.53.

And the “2 Rare Alleles (%), Pravastatin Patients” value [5]?
The value was “(17.1%)”.

What about the “2 Rare Alleles n/total, Pravastatin Patients” value [5] of the same compound?
The value was 7/58 and 7/41.

And the “Pravastatin vs placebo odds ratio, 2 rare alleles” value [5]?
The value was 0.47 and 0.37.

What about the “Pravastatin vs. Placebo Odds Ratio” value (ADAMTS1 hCV529706, Patients with 0 Rare Alleles, CARE Case/Control, F MI/SD/NF MI) of the same compound?
The value was 0.91.

What about the “Pravastatin vs. Placebo Odds Ratio” value (ADAMTS1 hCV529706, Patients with 1 Rare Allele, CARE Case/Control, F MI/SD/NF MI) of the same compound?
The value was 0.64.

What about the “Pravastatin vs. Placebo Odds Ratio” value (ADAMTS1 hCV529706, Patients with 2 Rare Alleles, CARE Case/Control, F MI/SD/NF MI) of the same compound?
Its value is 0.20.

And the “Pravastatin vs. Placebo Odds Ratio” value (ADAMTS1 hCV529710, Patients with 0 Rare Alleles, CARE Case/Control, F MI/SD/NF MI)?
Its value is 0.91.

And the “Pravastatin vs. Placebo Odds Ratio” value (ADAMTS1 hCV529710, Patients with 1 Rare Allele, CARE Case/Control, F MI/SD/NF MI)?
The value was 0.63.

What about the “Pravastatin vs. Placebo Odds Ratio” value (ADAMTS1 hCV529710, Patients with 2 Rare Alleles, CARE Case/Control, F MI/SD/NF MI) of the same compound?
Its value is 0.20.

What about the “2 rare alleles n/total (%), pravastatin patients” value (“2 rare alleles n/total (%)” for short) [6] of the same compound?
The value was “(7.5%)”.

What about the “Pravastatin vs placebo odds ratio, 0 rare alleles” value [6] of the same compound?
The value was 0.65.

What about the “Pravastatin vs placebo odds ratio, 1 rare allele” value [6] of the same compound?
Its value is 1.03.

And the “Pravastatin vs placebo odds ratio, 2 rare alleles” value [6]?
The value was 0.26.

What about the “2 rare alleles n/total (%)” value [7] of the same compound?
Its value is “(7.2%)”.

And the “Pravastatin vs placebo odds ratio, 0 rare alleles” value [7]?
The value was 0.65.

And the “Pravastatin vs placebo odds ratio, 1 rare allele” value [7]?
The value was 1.02.

What about the “Pravastatin vs placebo odds ratio, 2 rare alleles” value [7] of the same compound?
Its value is 0.23.

And the “Pravastatin vs. Placebo Odds Ratio” value (AGTR1 hCV3187716, Patients with 0 Rare Alleles, CARE Prospective, F MI/SD/NF MI)?
Its value is 0.70.

What about the “Pravastatin vs. Placebo Odds Ratio” value (AGTR1 hCV3187716, Patients with 1 Rare Allele, CARE Prospective, F MI/SD/NF MI) of the same compound?
Its value is 1.18.

What about the “Pravastatin vs. Placebo Odds Ratio” value (AGTR1 hCV3187716, Patients with 2 Rare Alleles, CARE Prospective, F MI/SD/NF MI) of the same compound?
The value was 0.27.

What about the “2 Rare Alleles (%), Pravastatin Patients” value [8] of the same compound?
The value was “(7.6%)”.

And the “2 Rare Alleles n/total, Pravastatin Patients” value [8]?
Its value is 15/198.

What about the “Pravastatin vs placebo odds ratio, 2 rare alleles” value [8] of the same compound?
Its value is 0.38.

And the “2 Rare Alleles (%), Pravastatin Patients” value [9]?
Its value is “(7.6%)”.

And the “2 Rare Alleles n/total, Pravastatin Patients” value [9]?
The value was 15/198.

What about the “Pravastatin vs placebo odds ratio, 2 rare alleles” value [9] of the same compound?
The value was 0.38.

What about the “2 rare alleles n/total (%)” value [10] of the same compound?
The value was “(13.2%)”.

And the “Pravastatin vs placebo odds ratio, 0 rare alleles” value [10]?
Its value is 0.42.

What about the “Pravastatin vs placebo odds ratio, 1 rare allele” value [10] of the same compound?
Its value is 0.78.

And the “Pravastatin vs placebo odds ratio, 2 rare alleles” value [10]?
The value was 1.16.

And the “2 Rare Alleles (%), Pravastatin Patients” value [11]?
Its value is “(5.0%)”.

And the “2 Rare Alleles n/total, Pravastatin Patients” value [11]?
The value was 7/140.

And the “Pravastatin vs placebo odds ratio, 2 rare alleles” value [11]?
The value was 0.30.

What about the “2 Rare Alleles (%), Pravastatin Patients” value [12] of the same compound?
Its value is “(5.0%)”.

And the “2 Rare Alleles n/total, Pravastatin Patients” value [12]?
Its value is 7/140.

And the “Pravastatin vs placebo odds ratio, 2 rare alleles” value [12]?
Its value is 0.30.

What about the “2 rare alleles n/total (%)” value [13] of the same compound?
The value was “(21.4%)”.

What about the “Pravastatin vs placebo odds ratio, 0 rare alleles” value [13] of the same compound?
The value was 0.81.

What about the “Pravastatin vs placebo odds ratio, 1 rare allele” value [13] of the same compound?
The value was 0.37.

What about the “Pravastatin vs placebo odds ratio, 2 rare alleles” value [13] of the same compound?
Its value is 5.35.

What about the “Pravastatin vs placebo odds ratio, 2 rare alleles” value (CAPN10 hCV25614016, CARE, Case/Control, F MI/SD/NF MI) of the same compound?
The value was 0.90.

What about the “Pravastatin vs placebo odds ratio, 0 rare alleles” value [14] of the same compound?
Its value is 0.62 and 0.56.

What about the “Pravastatin vs placebo odds ratio, 1 rare allele” value [14] of the same compound?
Its value is 1.58 and 1.43.

What about the “Pravastatin vs placebo odds ratio, 2 rare alleles” value [14] of the same compound?
The value was 1.07.

And the “2 rare alleles n/total (%)” value [15]?
Its value is “(9.1%)”.

What about the “Pravastatin vs placebo odds ratio, 0 rare alleles” value [15] of the same compound?
The value was 0.63 and 0.56.

And the “Pravastatin vs placebo odds ratio, 1 rare allele” value [15]?
The value was 1.60 and 1.42.
